In this test the target is HLA-DQ2 (Homo sapiens, UniProt P01909+P01920). The test can be described thus: Inhibition of IL-2 secretion by TCR transductants stimulated by α-gliadin peptides presented by HLA-DQ2 expressing K562 cells (ELISA). In kind it is cell-based. As to conditions: inhibition of IL-2 secretion at 200 uM; tested as trans racemate unless otherwise noted; lines naming several Examples = stereoisomer mixture of those Examples. Here is the method: Three commercially available analogues of the DQ2 binding molecules of the invention were tested for their ability to inhibit stimulation of T cell receptor (TCR) transductants in the presence of HLA-DQ2 expressing cells presenting known α-gliadin epitopes.
HLA-DQ2, sequence (P01920 33-261 limits assumed, other chains not shown): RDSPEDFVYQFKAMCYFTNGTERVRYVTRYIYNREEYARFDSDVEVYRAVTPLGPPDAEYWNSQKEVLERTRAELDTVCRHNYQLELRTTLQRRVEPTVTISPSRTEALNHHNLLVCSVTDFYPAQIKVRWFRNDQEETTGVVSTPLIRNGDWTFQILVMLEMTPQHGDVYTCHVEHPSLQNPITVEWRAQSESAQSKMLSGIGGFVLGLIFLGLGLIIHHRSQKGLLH
Using a previously published in vitro assay (Ostrov D, et al. Methyldopa blocks MHC class II binding to disease specific antigens in autoimmune diabetes. J Clin Invest. 2018:128 (5)) the ability of these DQ2 binding analogues to inhibit interleukin-2 (IL-2) secretion by TCR transductants stimulated by α-gliadin peptides presented by HLA-DQ2 was determined. Individual TCR transductants (recognizing a I-gliadin or a II-gliadin) were cultured with a gliadin peptide plus the small molecule analogues in the presence of HLA-DQ2 expressing K562 cells serving as antigen presenting cells. TCR transductants cultured with no gliadin peptide served as the negative control, and incubation with an anti-CD3 antibody (eBioscience; clone 2C11) served as a positive control for the TCR transductant. Secreted IL-2 in the culture supernatant was measured using a highly sensitive enzyme-linked immunosorbent assay (ELISA). […] Assays for effects on cell viability and for specificity, assayed in the absence of gliadin peptide or in the presence of a stimulating anti-CD3 antibody, were performed. Unless otherwise noted, the stereochemistry shown below represents the relative configuration. Further, unless otherwise noted, compounds were tested as the trans racemate.
With `COC(=O)c1cccc(OCC(=O)N2CCN(C(=O)[C@@H]3C[C@H]3c3ccccc3)CC2)c1` [Example 101], the “% Inh at 200 uM” value was “A (A=≥75%)”.
Then `O=C(CS(=O)(=O)C1CCCC1)N1CCN(C(=O)[C@@H]2CC2c2ccccc2)CC1` (stereo partly drawn) [Example 102], with “C (C=25-49%)”; and `O=C(O)c1ccc(SCC(=O)N2CCN(C(=O)[C@@H]3C[C@H]3c3ccccc3)CC2)cc1` [Example 104], with “B (B=50-74%)”.
Regarding `O=C(COc1ccccc1O)N1CCN(C(=O)[C@@H]2C[C@H]2c2ccccc2)CC1` [Example 105], the “% Inh at 200 uM” value is “B (B=50-74%)”.
Then `O=C(O)c1cccc(OCC(=O)N2CCN(C(=O)[C@@H]3C[C@H]3c3ccccc3)CC2)c1` [Example 107], with “D (D=0-24%)”; and `O=C(COc1ccc(F)cc1)N1CCN(C(=O)[C@@H]2C[C@H]2c2ccccc2)CC1` [Example 108], with “A (A=≥75%)”.
The value for `O=C(O)CCOCC(=O)N1CCN(C(=O)[C@@H]2C[C@H]2c2ccccc2)CC1` [Example 110] was “D (D=0-24%)”; that for `O=C(O)CCNCC(=O)N1CCN(C(=O)[C@@H]2C[C@H]2c2ccccc2)CC1` [Example 111] was “D (D=0-24%)”.
For `O=C(O)CCSCC(=O)N1CCN(C(=O)[C@@H]2C[C@H]2c2ccccc2)CC1` [Example 112], the “% Inh at 200 uM” value is “D (D=0-24%)”.
`O=C(O)CCCNCC(=O)N1CCN(C(=O)[C@@H]2C[C@H]2c2ccccc2)CC1` [Example 113]: the “% Inh at 200 uM” value is reported as “D (D=0-24%)”.
The value for `O=C(O)CCCSCC(=O)N1CCN(C(=O)[C@@H]2C[C@H]2c2ccccc2)CC1` [Example 114] was “D (D=0-24%)”; that for `O=C(CN1CCCC1=O)N1CCN(C(=O)[C@@H]2C[C@H]2c2ccccc2)CC1` [Example 115] was “D (D=0-24%)”.

Source of the values: US11945790B2 (ImmunoMolecular Therapeutics, Inc., priority 2020, dated 2024).
